# According to ChEMBL document CHEMBL4765411, “Discovery of 2-(2-aminobenzo[d]thiazol-6-yl) benzo[d]oxazol-5-amine derivatives that regulated HPV relevant cellular pathway and prevented cervical cancer from abnormal proliferation” (Eur J Med Chem, 2020):
# Calls of active or inactive are those of the source. The rule behind the calls is not given here.
# Tests used:
# [1] = system: HeLa; experiment: Antiproliferative activity against human HeLa cells assessed as growth inhibition at 20 uM viability after 72 hrs by SRB assay relative to control; type: functional; settings: read-out: GI
# [2] = system: HeLa; experiment: Antiproliferative activity against human HeLa cells assessed as growth inhibition at 1 uM viability after 72 hrs by SRB assay relative to control; type: functional; settings: read-out: GI
# [3] = system: HeLa; experiment: Antiproliferative activity against human HeLa cells assessed as reduction in cell viability after 72 hrs by SRB assay; type: functional, cell-based
# [4] = system: human papillomavirus 18; experiment: Down regulation of viral protein E6 in HPV18 infected in human C4-1 cells after 24 hrs by Western blot analysis; type: functional, cell-based; settings: dose 0.5-10 µM
# [5] = system: MCF7; experiment: Antitumour activity against human MCF7 cells xenografted in BALB/c nude mouse assessed as reduction in tumour growth at 50 mg/kg, ig administered for alternative days; type: functional, organism-based
# [6] = Toxicity in BALB/c nude mouse xenografted with human HeLa cells assessed as effect on body weight at 50 mg/kg, ig administered for alternative days; type: organism-based; settings: in vivo, po
# [7] = system: human papillomavirus 18; experiment: Down regulation of viral protein E7 in HPV18 infected in human HeLa cells after 24 hrs by Western blot analysis; type: functional, cell-based; settings: dose 0.5-10 µM
# [8] = system: HeLa; experiment: Induction of cell cycle arrest in human HeLa cells assessed as decrease in accumulation in S phase at 1 uM after 24 hrs by RNAse/propidium iodide staining based flow cytometric analysis; type: functional
# [9] = system: HEK293; experiment: Cytotoxicity against human HEK293 cells assessed as reduction in cell viability after 72 hrs by SRB assay; type: cell-based; settings: HEK293, 72 h
# [10] = biological target: T1, Protein E7 (human papillomavirus 18) (UniProt P06788); experiment: Inhibition of viral protein E7 in HPV18 infected in human HeLa cells assessed as reduction in DNMT1 protein […] after 24 hrs by Western blot analysis; type: cell-based; settings: dose 0.5-10 µM
# T1 sequence (whole entry): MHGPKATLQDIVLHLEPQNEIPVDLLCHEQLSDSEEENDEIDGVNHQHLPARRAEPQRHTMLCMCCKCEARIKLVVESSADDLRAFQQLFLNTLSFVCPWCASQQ
# [11] = Toxicity in BALB/c nude mouse xenografted with human A375 cells assessed as effect on body weight at 50 mg/kg, ig administered for alternative days; type: organism-based; settings: in vivo, po
# [12] = system: HeLa; experiment: Down regulation of viral protein E7 in HPV18 infected in human HeLa cells at 5 uM after 24 hrs in presence of MG132 by Western blot analysis; type: functional, cell-based
# [13] = Toxicity in BALB/c nude mouse xenografted with human A431 cells assessed as effect on body weight at 50 mg/kg, ig administered for alternative days; type: organism-based; settings: in vivo, po
# [14] = system: C-33-A; experiment: Antiproliferative activity against human C-33-A cells assessed as reduction in cell viability after 72 hrs by SRB assay; type: functional, cell-based
# [15] = system: HeLa; experiment: Induction of apoptosis in human HeLa cells assessed as late apoptotic cells at 1 uM after 24 hrs by Annexin V FITC/propidium iodide staining based flow cytometric analysis (reference value: 0.41%); type: functional
# [16] = system: HeLa; experiment: Induction of apoptosis in human HeLa cells assessed as necrotic cells at 1 uM after 24 hrs by Annexin V FITC/propidium iodide staining based flow cytometric analysis (reference value: 1.02%); type: functional
# [17] = system: human papillomavirus 18; experiment: Down regulation of viral protein E7 in HPV18 infected in human C4-1 cells after 24 hrs by Western blot analysis; type: functional, cell-based; settings: dose 0.5-10 µM
# [18] = Antiproliferative activity against human C4-1 cells assessed as reduction in cell viability after 72 hrs by SRB assay; type: functional, cell-based; settings: C4-1, 72 h
# [19] = system: A-431; experiment: Antitumour activity against human A431 cells xenografted in BALB/c nude mouse assessed as reduction in tumour growth at 50 mg/kg, ig administered for alternative days; type: functional, organism-based
# [20] = system: HeLa; experiment: Induction of apoptosis in human HeLa cells assessed as early apoptotic cells at 1 uM after 24 hrs by Annexin V FITC/propidium iodide staining based flow cytometric analysis (reference value: 0.6%); type: functional
# [21] = biological target: T1, Protein E7 (human papillomavirus 18); experiment: Inhibition of viral protein E7 in HPV18 infected in human HeLa cells assessed as reduction in phosphorylation of Rb at S780 residue after 24 hrs by Western blot analysis; type: cell-based; settings: dose 0.5-10 µM
# [22] = biological target: T1, Protein E7 (human papillomavirus 18); experiment: Inhibition of viral protein E7 in HPV18 infected in human HeLa cells assessed as reduction in phosphorylation of Rb at S608 residue after 24 hrs by Western blot analysis; type: cell-based; settings: dose 0.5-10 µM
# [23] = system: A-375; experiment: Antitumour activity against human A375 cells xenografted in BALB/c nude mouse assessed as reduction in tumour growth at 50 mg/kg, ig administered for alternative days; type: functional, organism-based
# [24] = system: HeLa; experiment: Antitumour activity against human HeLa cells xenografted in BALB/c nude mouse assessed as reduction in tumour growth at 50 mg/kg, ig administered for alternative days; type: functional, organism-based
# [25] = system: SiHa; experiment: Antiproliferative activity against human SiHa cells assessed as reduction in cell viability after 72 hrs by SRB assay; type: functional, cell-based
# [26] = system: SK-OV-3; experiment: Antitumour activity against human SKOV-3 cells xenografted in BALB/c nude mouse assessed as reduction in tumour growth at 50 mg/kg, ig administered for alternative days; type: functional, organism-based
# [27] = Toxicity in BALB/c nude mouse xenografted with human MCF7 cells assessed as effect on body weight at 50 mg/kg, ig administered for alternative days; type: organism-based; settings: in vivo, po
# [28] = biological target: T1, Protein E7 (human papillomavirus 18); experiment: Inhibition of viral protein E7 in HPV18 infected in human HeLa cells assessed as reduction in E2F-1 protein […] after 24 hrs by Western blot analysis; type: cell-based; settings: dose 0.5-10 µM
# [29] = system: HeLa; experiment: Induction of apoptosis in human HeLa cells assessed as viable cells at 1 uM after 24 hrs by Annexin V FITC/propidium iodide staining based flow cytometric analysis (reference value: 97.97%); type: functional; settings: read-out: Activity
# [30] = Toxicity in BALB/c nude mouse xenografted with human SKOV-3 cells assessed as effect on body weight at 50 mg/kg, ig administered for alternative days; type: organism-based; settings: in vivo, po
# [31] = system: human papillomavirus 18; experiment: Down regulation of viral protein E6 in HPV18 infected in human HeLa cells after 24 hrs by Western blot analysis; type: functional, cell-based; settings: dose 0.5-10 µM
smiles,measurement,setting,value
c1cncc(-c2nc3ccccc3s2)c1,inhibition of growth at 20 µM,[1],4.4%
Nc1nc2ccc(-c3nc4ccccc4o3)cc2s1,inhibition of growth at 1 µM,[2],59.6%
same,IC50,[3],820 nM
same,inhibition of growth at 20 µM,[1],67.2%
O=S(=O)(O)c1nc2ccccc2s1,inhibition of growth at 20 µM,[1],25%
c1ccc(-c2nc3ccccc3[nH]2)nc1,inhibition of growth at 20 µM,[1],2.5%
Clc1ccccc1-c1nc2ccccc2s1,inhibition of growth at 20 µM,[1],4.9%
Nc1ccc2oc(-c3ccc4nc(N)sc4c3)nc2c1,Activity,[4],Dose-dependent effect
same,Activity,[5],inactive
same,inhibition of growth at 1 µM,[2],81.7%
same,Activity,[6],Non-Toxic
same,Activity,[7],Dose-dependent effect
same,Activity,[8],Active
same,IC50,[9],> 20000 nM
same,inhibition,[10],Dose-dependent effect
same,Activity,[11],Non-Toxic
same,Activity,[12],inactive
same,Activity,[13],Non-Toxic
same,IC50,[14],11900 nM
same,Activity,[15],3.05%
same,IC50,[3],380 nM
same,Activity,[16],2.33%
same,Activity,[17],Dose-dependent effect
same,IC50,[18],440 nM
same,Activity,[19],inactive
same,inhibition of growth at 20 µM,[1],81.1%
same,Activity,[20],8.77%
same,inhibition,[21],Dose-dependent effect
same,inhibition,[22],Dose-dependent effect
same,Activity,[23],inactive
same,Activity,[24],Active
same,IC50,[25],11500 nM
same,Activity,[26],inactive
same,Activity,[27],Non-Toxic
same,inhibition,[28],Dose-dependent effect
same,viability at 1 µM,[29],85.8%
same,Activity,[30],Non-Toxic
same,Activity,[31],Dose-dependent effect
Nc1ccc(Br)cc1-c1nc2ccccc2s1,inhibition of growth at 20 µM,[1],0.8%
CCOc1ccc(-c2nc3cc(N)ccc3o2)cc1,inhibition of growth at 20 µM,[1],5.8%
Clc1ccc(-c2nc3ccccc3s2)c(Cl)c1,inhibition of growth at 20 µM,[1],0.3%
O=[N+]([O-])c1cccc(-c2nc3ccccc3s2)c1,inhibition of growth at 20 µM,[1],4.4%
Nc1ccc(-c2nc3cc(N)ccc3[nH]2)cc1,inhibition of growth at 20 µM,[1],4%
Nc1ccc2oc(-c3ccccc3)nc2c1,inhibition of growth at 20 µM,[1],-2.3%
Cc1nc(-c2nc3ccccc3s2)n[nH]1,inhibition of growth at 20 µM,[1],6.6%
Nc1nc2ccccc2[nH]1,inhibition of growth at 20 µM,[1],1.1%
Sc1nc2ccccc2s1 [2-MERCAPTOBENZOTHIAZOLE],inhibition of growth at 20 µM,[1],7.9%
O=[N+]([O-])c1ccc(-c2nc3cc([N+](=O)[O-])ccc3o2)cc1,inhibition of growth at 20 µM,[1],3.8%
Nc1cccc(-c2nc3ccccc3s2)c1,inhibition of growth at 20 µM,[1],1.7%
Nc1nc2ccc([N+](=O)[O-])cc2s1,inhibition of growth at 20 µM,[1],6%
Brc1ccc(-c2nc3ccccc3s2)cc1,inhibition of growth at 20 µM,[1],5.5%
Oc1c(Br)cc(Br)cc1-c1nc2ccccc2s1,inhibition of growth at 20 µM,[1],4%
Nc1ccc2oc(-c3cccc4c(Br)cccc34)nc2c1,inhibition of growth at 20 µM,[1],13.8%
COc1ccc(-c2nc3cc(N)ccc3o2)cc1,inhibition of growth at 20 µM,[1],42.6%
COc1ccc2nc(N)sc2c1,inhibition of growth at 20 µM,[1],-3.4%
O=C(Nc1nc2ccccc2s1)c1c(Cl)cccc1Cl,inhibition of growth at 20 µM,[1],3.5%
Nc1ccc2nc(-c3ccccc3)oc2c1,inhibition of growth at 20 µM,[1],-0.7%
Brc1cccc(-c2nc3ccccc3s2)c1,inhibition of growth at 20 µM,[1],2.6%
Nc1ccc(-c2nc3ccccc3o2)cc1,inhibition of growth at 20 µM,[1],19.3%
CCNC(=O)Nc1ccc2oc(-c3ccc4nc(N)sc4c3)nc2c1,inhibition of growth at 1 µM,[2],0.7%
same,inhibition of growth at 20 µM,[1],6.8%
Nc1nc2cccc(Cl)c2s1,inhibition of growth at 20 µM,[1],5.3%
Nc1nc2c(Br)cccc2s1,inhibition of growth at 20 µM,[1],1.7%
COc1ccc2sc(N)nc2c1,inhibition of growth at 20 µM,[1],12.2%
